Three molecules from patent publication US11007162B2, “Methods of reducing small, dense LDL particles” (CymaBay Therapeutics, Inc., priority 2008, dated 2021) can be followed below.

In one experiment the test system is overweight subjects. Kind of experiment: Second clinical study: LDL particle size pattern and blood chemistry in overweight subjects. Type of experiment: in vivo, human. Here is the method: A second clinical study to determine the effect of the Compound of Formula II on LDL particle size in overweight subjects was performed. Subjects in this study met the following criteria: Non-Diabetic; untreated or diet-treated, with fasting lipids at initial screening and visit 2 (after 4 week run-in): […] Subjects were males with waist circumference greater than 38″ or females with waist circumference greater than 33″. Data was generated in this second study from 181 subjects. […] Of the 28 subjects that remained in the study in the placebo group, there was a net loss of subjects having LDL pattern A.

The subject of experiment [1] is human subjects. Kind of experiment: Absorption of phytosterols (markers of cholesterol absorption) in human subjects, day 21. Type of experiment: in vivo. The following applies: oral daily dose, day 21, FIG. 11. Here is the method:
In another experiment, human subjects received an oral dose of Compound II at day 1 and daily thereafter and the effect of the drug was assessed on day 21. Phytosterols are poorly absorbed from diet, but are absorbed proportionally with dietary cholesterol and thus serve as good markers of cholesterol absorption.

For another experiment, the system named is healthy male subjects. Kind of experiment: Phase I multiple ascending dose study, 21 days; LDL particle size by GGE and AIM. Type of experiment: in vivo, human. The following applies: for predominant LDL particle size / proportion of small LDL particles: 50, 100 and 200 mg. Here is the method: Thirty-six healthy male subjects were treated with the compound of Formula II at 50, 100, and 200 mg for 21 days. To determine the lipoprotein particle sizes in the subjects before and after administration of the compound, gradient-gel electrophoresis (GGE) and Airborne Ion Mobility (AIM) methods were used.
GGE was performed essentially as described in Krauss and Burke, J Lipid Res. 23:97-104 (1982) and La Belle, et al., J. Lipid Res. 38 690-700 (1997) as follows:
LDL particle diameters were determined by nondenaturing 2-14% polyacrylamide gradient gel electrophoresis in 0.09 M Tris/0.08 M borate buffer (pH 8.3), 3 mM EDTA at 8-10° C. Samples (whole plasma) were electrophoresed at 40 V for 15 min, then 80 V for 15 min, and then at 125 V for 24 h to allow all particles to run to their size exclusion limits. Gels were stained for protein with Sudan Black and scanned at 555 nm with a Transidyne RFT densitometer. Particle sizes were calculated from a calibration curve using a high molecular weight reference protyin mixture (Pharmacia Biotech., Piscataway, N.J.), 380 Å latex beads (Duke Scientific Corp., Palo Alto, Calif.) and lipoprotein calibrators that are frozen at −80° C. and included on each gel run. Plasma samples, stored at −80° C. and used as controls for gradient gel analysis procedures, were run in duplicate on each gel. Particle size of LDL peaks in the controls were measured within ±2 Å (coefficient of variation, +1%).
AIM was performed essentially as described in Caulfield, et al., Clin. Chem. 54:1307-1316 (2008), generally as follows:
Serum samples or controls were briefly mixed by vortex mixing, then 5 μl of sample or control was mixed with 20 μl of an albumin removal reagent [7.5 g/L Reactive green 19 dextran (RGD), Sigma-Aldrich; 2.5 g/L dextran sulfate, Sigma-Aldrich; and 0.5 g/L EDTA, Spectrum Chemicals] and incubated on ice for 15 minutes. After incubation, the sample mixture was overlaid on 200 μl deuterium oxide (Medical Isotopes) in a 42.2 ultracentrifuge tube (Beckman Coulter). The samples were ultracentrifuged at 10° C. for 135 min at 223 000 g (42 000 rpm), and then the top 85 μl (i.e., the lipid fraction) of the sample was removed. The samples were diluted 1:800 for HDL analysis using 25 mmol/L ammonium acetate, 0.5 mmol/L ammonium hydroxide, pH 7.4. For LDL analysis, samples were diluted 1:200 with the same diluent containing 5 μg/mL dextran sulfate to help prevent LDL particles from sticking to the capillary surfaces. Final dilutions were made in deep-well 96-well plates and placed in a Leap HTLC Pal autosampler (Eksigent) with the cooled stack maintained at 6° C.
The autosampler was connected to the electrospray generator (Model 3480; TSI) via methyl-deactivated silica capillary (50 μm i.d.; SGE). Flow was introduced by nano-LC pumps (Eksigent) running a mobile phase of 25 mmol/L ammonium acetate, 0.5 mmol/L ammonium hydroxide, pH 7.4. By means of a capillary metal union (Upchurch Scientific), an autosampler injected 10 μl sample at 6 μl/min into a transfer capillary (methyl-deactivated, SGE, 50 μm, 33 cm long). High voltage (2.1 kV) was applied to the metal capillary union located 33 cm upstream of the electrospray unit. The electrospray Taylor cone was monitored visually and amperometrically to ensure stability. After the sample had filled the capillary and reached the electrospray chamber, the flow was decreased to 200 nL/min and the data recording process was started. The gas (containing approximately 5% CO2) flowing into the electrospray chamber was regulated at 1.6 L/min. The electrosprayed particles passed through a particle-charge neutralizing chamber and then entered the differential mobility analyzer (DMA). Se, e.g., U.S. Pat. No. 7,259,018. Scan time was 2 min and covered a particle range of 17.2 to 542.0 Å. […]

In experiment [2] the test system is human subjects. Kind of experiment: Effect on cholesterol synthesis in human subjects after 21 days. Type of experiment: in vivo. The protocol:
A series of experiments were performed to determine the effect of Compound II on cholesterol synthesis. Compound II was administered to human subjects and the effect on cholesterol ester, acyl-coenzyme A:cholesterol acyltransferase (ACAT) and Lecithin-cholesterol acyltransferase (LACAT) was determined after 21 days. […] The effect of treatment appeared similar between ACAT- and LCAT-derived cholesterol esters, indicating a reduction in cholesterol substrate.

A further experiment deals with C57BL/6 mice. Kind of experiment: Intestinal cholesterol absorption by fecal dual isotope ratio method. Type of experiment: in vivo. The protocol: This study was designed to examine the effect of Compound II on intestinal cholesterol absorption in mice using the fecal dual isotope ratio method. Eight-week-old male C57BL/6 mice were fed standard mouse chow (control) with no added cholesterol (Harlan Teklad diet T.8604) ad libitum. Mice were randomized into five groups: 1) control, water gavaged daily; 2) compound II gavaged daily (in water) at a dose of 3 mg/kg; 3) compound II gavaged daily (in water) at a dose of 10 mg/kg; 4) ezetimibe gavaged daily (in corn oil) at a dose of 5 mg/kg; 5) compound II fed daily as diet admix at a dose of approximately 15 mg/kg. Mice were housed individually and monitored daily for food consumption and body weight. Following eight days of feeding/drug administration, (and 1 hour following gavage of drug), nonfasted, unanesthetized animals were bled and plasma was isolated and flash-frozen at −80° C. for shipment and measurement of concentrations of Compound II and its metabolites. The following day (day 9), mice were gavaged with drug or control. One hour later, each mouse was gavaged with MCT oil containing [^14C]cholesterol and [^3H]sitostanol. Mice were housed individually in metabolic cages and ad libitum feeding and daily gavage of each drug was continued. Feces were collected daily from each animal for a period of 4 days. For each individual mouse, the 4-day feces were pooled, dried, saponified, extracted and counted.
Intestinal cholesterol absorption in age- and gender-matched C57BL/6 mice was determined by the fecal dual isotope ratio method. […] See, FIG. 10. […] Statistical analysis between groups was assessed by unpaired Student's t-test. Statistical significance was defined as a two-tailed probability of less than 0.05.

Setting [3] is: Atorvastatin 20 mg, Week 0 (before treatment).
[4] abbreviates: 21 days, listed as compound of Formula II.
[5] abbreviates: phase I multiple ascending doses samples, FIG. 1.
Setting [6] is: MBX-8025 50 mg, Week 0 (before treatment).
Where [7] appears, read: MBX-8025 100 mg, Week 0 (before treatment).

As to `CC(C)c1c(C(=O)Nc2ccccc2)c(-c2ccccc2)c(-c2ccc(F)cc2)n1CC[C@@H](O)C[C@@H](O)CC(=O)O` [Atorvastatin, reference compound], in the experiment with overweight subjects (setting [3]), the “number of subjects having LDL Pattern A” value is recorded as 9, the “number of subjects having LDL Pattern B” value is listed as 15 and the “number of subjects having LDL Pattern I” value is given as 5. In the experiment with overweight subjects (Atorvastatin 20 mg, Week 4), the “number of subjects having LDL Pattern A” value is recorded as 12, the “number of subjects having LDL Pattern B” value was 10 and the “number of subjects having LDL Pattern I” value is on record as 6. Also, in the experiment on overweight subjects (Atorvastatin 20 mg, Week 8), the “number of subjects having LDL Pattern A” value is 13, the “number of subjects having LDL Pattern B” value came to 13 and the “number of subjects having LDL Pattern I” value amounted to 3. Besides, the HDL levels result in the experiment with overweight subjects (FIG. 6) is reported as “no effect”.

In the case of `CCOC(COc1ccc(C(F)(F)F)cc1)CSc1ccc(OCC(=O)O)c(C)c1` (centres unmarked) [Compound II], in the experiment with human subjects [1], the Stigmasterol result is given as “not significantly affected”, the campesterol entry is “significantly decreased” and the β-sitosterol entry was “significantly decreased”. Moreover, the “shift of LDL subclass pattern” value with healthy male subjects (50, 100 and 200 mg dosage, day 21 vs day 1, GGE) is on record as “from LDL Pattern B or I to LDL Pattern A”. In addition, in the experiment on healthy male subjects (21 days, listed as compound II), the “predominant LDL particle size” value was “increased” and the “proportion of small LDL particles” value is recorded as “lowered”. Moreover, in the experiment with healthy male subjects (setting [4]), the “predominant LDL particle size” value is “effectively increased” and the “proportion of small LDL particles” value is reported as “decreasing the amount of smaller LDL particles”. The “predominant LDL particle size” value in the experiment with healthy male subjects (21 days, listed as drawing 12) is reported as “effective in improving”. Besides, in the experiment with healthy male subjects (21 days), the VLDL particle size result is listed as “did not affect”. Moreover, in the experiment with healthy male subjects (21 days, by dose), the LDL particle distributions result is “did affect LDL particle distributions in dose dependent fashion”. Further, in the experiment on healthy male subjects (setting [5]), the “Apolipoprotein B” value is recorded as “significantly lowered” and the LDL-cholesterol result was “significantly lowered”. For the same molecule, in the experiment with human subjects [2] (FIG. 9), the “Lanosterol (cholesterol synthesis intermediate) in blood” value is recorded as “decreased in a dose-dependent fashion”, the “desmosterol (cholesterol synthesis intermediate) in blood” value was “decreased in a dose-dependent fashion” and the “lathosterol (cholesterol synthesis intermediate) in blood” value is given as “decreased in a dose-dependent fashion”. The “cholesterol concentrations (ACAT- and LCAT-derived cholesterol esters)” value in the experiment with human subjects [2] (after 21 days) is “decreased cholesterol concentrations in a dose-dependent fashion”. For the same molecule, the “LDL pattern results compared with control group treated with Atorvastatin” value with overweight subjects (50 mg and 100 mg) is recorded as “superior”. Besides, in the experiment with overweight subjects (100 mg), the “number of subjects having pattern A (in words)” value was “increase” and the “number of subjects having pattern B (in words)” value is given as “large decrease”. In the experiment on overweight subjects (FIG. 6), the “Apo B-100” value is on record as “reduced”, the HDL levels result is on record as “increased”, the LDL result was “reduced” and the total cholesterol entry is reported as “reduced”. Also, in the experiment with overweight subjects (FIG. 6), the triglycerides entry was “reduced”. Further, the “percentage of individuals having LDL pattern A over time” value in the experiment with overweight subjects (FIG. 7) was “went up dramatically”. The “percentage of individuals having LDL pattern B over time” value with overweight subjects (FIG. 8) was “went down dramatically”. Further, in the experiment on overweight subjects (setting [6]), the “number of subjects having LDL Pattern A” value was 8, the “number of subjects having LDL Pattern B” value came to 13 and the “number of subjects having LDL Pattern I” value is recorded as 7. In the experiment on overweight subjects (MBX-8025 50 mg, Week 4), the “number of subjects having LDL Pattern A” value amounted to 24, the “number of subjects having LDL Pattern B” value is on record as 3 and the “number of subjects having LDL Pattern I” value was 0. Besides, in the experiment on overweight subjects (MBX-8025 50 mg, Week 8), the “number of subjects having LDL Pattern A” value was 25, the “number of subjects having LDL Pattern B” value is listed as 2 and the “number of subjects having LDL Pattern I” value worked out at 2. For the same molecule, in the experiment on overweight subjects (setting [7]), the “number of subjects having LDL Pattern A” value was determined as 6, the “number of subjects having LDL Pattern B” value is reported as 20 and the “number of subjects having LDL Pattern I” value amounted to 7. For the same molecule, in the experiment with overweight subjects (MBX-8025 100 mg, Week 4), the “number of subjects having LDL Pattern A” value is 25, the “number of subjects having LDL Pattern B” value was determined as 1 and the “number of subjects having LDL Pattern I” value came to 4. Besides, in the experiment with overweight subjects (MBX-8025 100 mg, Week 8), the “number of subjects having LDL Pattern A” value came out at 25, the “number of subjects having LDL Pattern B” value was determined as 2 and the “number of subjects having LDL Pattern I” value is reported as 2. The “reduction in cholesterol absorption versus control (printed as negative change)” value in the experiment on C57BL/6 mice (admix to diet, approximate dose 15 mg/kg/d, p<0.0006) is listed as −45%. The “change in cholesterol absorption versus control” value with C57BL/6 mice (gavage, 3 mg/kg/d, no significant change) was −8%. In addition, the “reduction in cholesterol absorption versus control” value in the experiment with C57BL/6 mice (gavage, 10 mg/kg/d, significant) worked out at 29.4%.

Turning to `O=C1[C@H](CC[C@H](O)c2ccc(F)cc2)[C@@H](c2ccc(O)cc2)N1c1ccc(F)cc1` [ezetimibe, reference compound], in the experiment on C57BL/6 mice (gavage in corn oil, 5 mg/kg/d, positive control, p<0.0000005), the “reduction in cholesterol absorption” value was 56.4%.
